Laboratory results published in publication PMC12633754, “Elastase inhibition by natural flavonoids: mechanistic insights and potential therapeutic applications” (Frontiers in Nutrition, 2025).
pIC50, pKd: −log10 of the molar value.

Experiments:
elastase = biological target: elastase; design: method as in doi:10.19894/j.issn.1000-0518.210248; details: elastase inhibition, earlier study ref 61; cited from earlier work
[1] = biological target: T1, porcine pancreatic elastase (PPE) (Sus scrofa, UniProt P00772); assay: Elastase inhibition assay, fluorescent substrate MeOSuc-Ala-Ala-Pro-Val-AMC; format: biochemical
T1 construct: purchased Sigma-Aldrich (St. Louis, MO, United States)
T1 sequence (P00772 27-266): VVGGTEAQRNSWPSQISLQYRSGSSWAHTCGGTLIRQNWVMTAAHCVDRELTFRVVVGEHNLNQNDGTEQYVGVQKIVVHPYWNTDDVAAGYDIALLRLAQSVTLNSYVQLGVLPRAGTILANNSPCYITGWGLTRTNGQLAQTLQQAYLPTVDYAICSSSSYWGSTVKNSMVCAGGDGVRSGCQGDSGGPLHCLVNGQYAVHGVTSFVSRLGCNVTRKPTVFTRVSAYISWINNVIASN
Procedure: Elastase was selected as the enzyme target and MeOSuc-Ala-Ala-Pro-Val-AMC as the substrate for the enzymatic reaction. According to the principle of enzyme reactions, an in vitro target enzyme drug screening model was established by measuring the relative fluorescence intensity for drug screening and evaluation. The inhibition rate was measured using a FlexStation3 multifunctional plate reader (Molecular Devices, Shanghai, China). Elastase solution (50 μL, 5 × 10^−7 mol/L) was mixed with a fluorescent substrate (50 μL, 2 × 10^−5 mol/L), and Tris–HCl buffer solution was added to obtain a total volume of 200 μL. […] The excitation wavelength was adjusted to 380 nm, and the emission wavelength was recorded in the range 420–540 nm. A 200 μL buffer solution was used as the blank for reference. The relative fluorescence values of pure enzyme activity were recorded. Four monomer solutions of the same concentration were added separately and their relative fluorescence values were measured under the same conditions. The concentration of each monomer was varied in different samples to obtain IC50 values. Inhibition rate (%) was calculated as follows:
Inhibition rate(%)=RFUPPE−RFUDrugs+PPE/RFUPPE×100% (1)
where the relative fluorescence unit (RFU) PPE refers to the relative fluorescence measured when only PPE and the fluorescent substrate are present without any inhibitors, and RFU Drugs+PPE refers to the relative fluorescence measured when both PPE and the test drug inhibitor are present.

[2] = biological target: T1, porcine pancreatic elastase (PPE); assay: CD spectroscopy, secondary structure of PPE; details: PPE 5 μM, flavonoid 2.5 μM, 298 K
Procedure: The CD spectra of PPE, PPE-quercetin, PPE-hyperoside, PPE-luteolin, and PPE-luteoloside were obtained using an MOS-500 CD spectrometer (Biologic Science Instruments, Seyssinet-Pariset, France). […] Set at a temperature of 298 K. The signal was recorded from 190 to 260 nm using a path length of 1 mm, acquisition duration of 0.5 s, and scanning step of 2 nm. The CD spectra were averaged after performing three scans and correcting for the background value of the phosphate buffer. All results were documented as CD ellipticity in degrees.

[3] = biological target: T1, porcine pancreatic elastase (PPE); assay: Intrinsic fluorescence quenching of PPE: Stern-Volmer, binding constants, thermodynamics; details: for pKd: Ka binding constant
Procedure: Fluorescence measurements were performed using a model F-7000 fluorescence spectrometer (Hitachi, Tokyo, Japan). Elastase solution (2,000 μL in Tris–HCl buffer solution) was mixed with inhibitor solutions at different concentrations in a 1.0 cm quartz cell at 298, 303, and 310 K. The final concentrations of the four natural flavonoids and elastase were identical to those used to obtain the synchronous fluorescence spectra. The fluorescence emission spectra were recorded within the range of 285–500 nm, following excitation at 280 nm. The excitation and emission slit widths were set as 2.5 nm. The scan speed was 1,200 nm/min and the photomultiplier tube (PMT) voltage was 630 V. Fluorescence intensities were corrected for inner filter and dilution effects before analyzing the binding and quenching data.
To determine the type of fluorescence quenching of the monomer interacting with PPE, the Stern-Volmer equation was used ([20]–[22]):
F0/F=KSV[Q]+1=Kqτ0[Q]+1 (2)
where F0 and F are the fluorescence intensities of PPE before and after the addition of different monomer solutions, respectively, Ksv is the quenching constant, [Q] is the concentration of different drugs, Kq is the quenching rate constant, τ0 is the average fluorescence lifetime of the substance in the absence of a quencher, and τ0 for the general biological macromolecule is 1 × 10^−8 s ([20], [23], [24]).
According to the correction formula, the binding constant (Ka) and number of binding points (n) for the actions of the four monomers and PPE were calculated as follows ([25]–[27]):
lgF0−F/F=nlgKa−nlg1/[Q0]−[P0]F0−F/F0 (3)
where [ Q0 ] and [P0] are the drug and PPE concentrations, respectively.
where K is the binding constant of the interaction, R is the gas constant, ΔH, ΔG, and ΔS are enthalpy, Gibbs energy, and entropy change.

[4] = biological target: T1, porcine pancreatic elastase (PPE); assay: UV-vis absorption spectra of PPE with flavonoid; details: PPE 5 μM, flavonoid 15 μM, 298 K
Procedure: The UV–vis absorption spectra of porcine pancreatic elastase PPE (2.5 mL) were recorded using a Cary 300 spectrometer (Agilent, San Diego, CA, United States) in a quartz cuvette with a path length of 10 mm. PPE concentration was fixed at 5 μM and the drug concentrations were 0 and 15 μM. Tris–HCl solution (pH 7.6) was used as the blank. The control group was a solution of four flavonoid monomers at a final concentration of 15 μM. The spectra were recorded in the range of 200–500 nm with a slit width of 2 nm at 298 K.

[5] = biological target: T1, porcine pancreatic elastase (PPE); assay: Fluorescence resonance energy transfer and binding distance; details: [PPE] = [flavonoid] = 10 μM, 298 K
Procedure: The PPE-quercetin, PPE-hyperoside, PPE-luteolin, and PPE-luteoloside binding distances were calculated according to the fluorescence resonance energy transfer theory ([31]–[33]):
J=∑FD(λ)εA(λ)λ^4Δλ/∑FD(λ)Δλ (9)
where k^2 is the dipole moment spatial orientation factor, usually taking the average 2/3; φ is the quantum efficiency of PPE, usually a quantum efficiency of Try residues of 0.15; n is the refractive index of the medium, representing the average of water and organic matter; J is the overlap integral of the absorption spectra and the fluorescence spectra; and ɛA(λ) is the molar extinction coefficient ([34]–[36]).

[6] = biological target: T1, porcine pancreatic elastase (PPE); assay: FT-IR spectra of PPE-monomer complexes; details: PPE 10 μM, flavonoid 100 μM
Procedure: FTIR spectra were obtained using the potassium bromide (KBr) compression method with a Nicolet IS-50 spectrometer (Thermo Fisher Scientific, Waltham, MA, United States). […] The sheets were then dried at 45 °C and pressed. Blank background for the PBS buffer sheets. The spectral region between 4,000 and 500 cm^−1 was selected to examine changes in the secondary structure resulting from enzyme-drug interactions. All samples were assayed after drying and the experimental conditions were consistent for each group of assays.

[7] = biological target: T1, porcine pancreatic elastase (PPE); assay: Synchronous fluorescence spectra of PPE; details: Δλ = 60 nm, PPE 2 μM, flavonoid 0-80 μM, 298 K
Procedure: For the synchronous fluorescence spectroscopy experiments, the configuration of the solution preparation was the same as that used in experiment 2.3. Synchronous fluorescence spectra of PPE-quercetin, PPE-hyperoside, PPE-luteolin, and PPE-luteoloside were recorded at 298 K.

Structure (SMILES): CC(C)(C)C(=O)Oc1ccc(S(=O)(=O)Nc2ccccc2C(=O)NCC(=O)O)cc1 [sivelestat sodium]
- pIC50 (elastase): 5.00

Structure (SMILES): O=c1cc(-c2ccc(O)c(O)c2)oc2cc(O[C@@H]3O[C@H](CO)[C@@H](O)[C@H](O)[C@H]3O)cc(O)c12 [luteoloside]
- pIC50 ([1]; 298 K): 4.21
- inhibition at 22.5 µM ([1]; read-out: Inhibition rate of PPE): 12.2%
- decrease of α-helical structure [2]: 1.99%
- α-helix (%) ([2]; PPE alone 7.50): 5.51%
- Random coil (%) ([2]; PPE alone 41.00): 43.91%
- β-sheet (%) ([2]; PPE alone 51.50): 50.58%
- KSV Stern-Volmer quenching constant ([3]; 298 K): 1.79 10^4 L•mol^−1
- Kq quenching rate constant ([3]; 298 K): 1.79 10^12 L•mol^−1•s^−1
- n number of binding sites ([3]; 298 K): 0.95
- ΔG ([3]; 298 K): -5.834 kcal/mol
- KSV Stern-Volmer quenching constant ([3]; 303 K): 1.66 10^4 L•mol^−1
- Kq quenching rate constant ([3]; 303 K): 1.66 10^12 L•mol^−1•s^−1
- n number of binding sites ([3]; 303 K): 0.93
- ΔG ([3]; 303 K): -5.92 kcal/mol
- KSV Stern-Volmer quenching constant ([3]; 310 K): 1.57 10^4 L•mol^−1
- Kq quenching rate constant ([3]; 310 K): 1.57 10^12 L•mol^−1•s^−1
- n number of binding sites ([3]; 310 K): 1.07
- ΔG ([3]; 310 K): -6.042 kcal/mol
- pKd ([3]; 298 K): 4.28
- pKd ([3]; 303 K): 4.27
- pKd ([3]; 310 K): 4.26
- ΔH ([3]; van't Hoff, 298, 303, 310 K): -0.6989 kcal/mol
- ΔS ([3]; van't Hoff, 298, 303, 310 K): 72.107 J/(mol•K)
- blue shift of maximum absorption peak of PPE (275 nm) [4]: 8 nm
- R0 [5]: 1.99 nm
- binding distance r [5]: 2.71 nm
- amide I band of PPE after addition (from 1638.45) [6]: 1634.55 cm⁻¹
- red shift of Trp synchronous fluorescence [7]: 1 nm
